Broadly, the viability is a read-out of living cells in per cent, often relative to untreated cells.

This passage reports viability results from publication PMC12040169 (PLOS Biology, 2025).

The data set can be described thus: in vitro. The settings on record: human, hela cells, % viability.

In the case of `Cn1c(SCC(=O)Nc2c(F)cc(F)cc2Br)nnc1-c1cnccn1` [CBK267584], the viability at 28.5 h, 10 µM came to 97.6%.

Regarding `CCOc1ccsc1C(=O)Nc1cc(C)ccn1` [CBK004029], the viability at 28.5 h, 10 µM came out at 88.3%.

For `Cc1cc(Cl)c(OC(=O)NC2CCCCC2)cc1C` [CBK022948], under “bulk resorufin, single well”, the viability at 28.5 h, 10 µM amounted to 90.1%.

Consider `COc1ccc(C(=O)N2CC[C@H]3CC(=O)N(CCN4CCNC4=O)CC[C@H]3C2)cc1` [CBK288795], for which the viability at 28.5 h, 10 µM worked out at 110%.

Regarding `CC1NCCc2c1sc1ccccc21` (centres unmarked) [CBK026032C], the viability at 28.5 h, 10 µM was found to be 100%.

Consider `Cc1ccc(NC2C=CS(=O)(=O)C2)cc1` (centres unmarked) [CBK057487], for which the viability at 28.5 h, 10 µM worked out at 89.5%.

For the compound `CC(C)Nc1cc(Sc2ccc(Br)cc2)ncn1` [CBK089502], the viability at 28.5 h, 10 µM was found to be 103%.

As for `O=C(CCn1cnc2ccccc2c1=O)Nc1cccc(C(F)(F)F)c1` [CBK267687], the viability at 28.5 h, 10 µM came out at 91.5%.

With `COc1ccc(N2C(=O)CC(Sc3ncccc3C(=O)O)C2=O)cc1` (centres unmarked) [CBK263387], the viability at 28.5 h, 10 µM came out at 95.5%.

Turning to `CCOC(=O)c1ccsc1NC(=O)C1CC=CCC1C(=O)O` (centres unmarked) [CBK270291], the viability at 28.5 h, 10 µM came out at 97.5%.

As for `CCCNc1cc(C)nc2cc(-c3ccc(OC)c(OC)c3)nn12` [CBK287805], the viability at 28.5 h, 10 µM was 88.2%.

`CC(=O)Nc1ccc(C(=O)CSc2nnc(C)o2)cc1` [CBK267851]: the viability at 28.5 h, 10 µM is 107%.

Regarding `FC(F)(F)Oc1cccc(OCCOc2nccnc2N2CCNCC2)c1` [CBK014323G], the viability at 28.5 h, 10 µM is 100%.

Consider `Cc1ccc(-c2c(N3CCCC3)n[nH]c2C2CC2)cc1` [CBK288192], for which the viability at 28.5 h, 10 µM came to 97.8%.

On to `COc1ccccc1-c1cn2ccnc2c(Nc2cccc(Cl)c2)n1` [CBK066399], for which the viability at 28.5 h, 10 µM is 89.4%.

For `c1ccc(-c2nc(-c3ccncc3)sc2-c2ccccc2)cc1` [CBK291203], the viability at 28.5 h, 10 µM is 116%.

Take `O=[N+]([O-])c1cnc(NS(=O)(=O)c2ccc(Br)cc2C(F)(F)F)s1` [CBK067541]: the viability at 28.5 h, 10 µM turned out to be 99.6%.

Take `CN(CCN1CCCCC1)C(=O)c1ccccc1Cn1cccn1` [CBK281904]: the viability at 28.5 h, 10 µM is 105%.

`Cc1ccc(C(=O)/C=C(\Nc2cccc(C(F)(F)F)c2)C(=O)O)cc1` [CBK264366]: the viability at 28.5 h, 10 µM is 101%.

On to `COc1cc(C(=O)N2CCN(S(=O)(=O)c3ccccc3[N+](=O)[O-])CC2)cc(OC)c1OC` [CBK264182], for which the viability at 28.5 h, 10 µM was found to be 105%.

Turning to `O=C1NCCCC12CCN(Cc1ccccc1N1CCCCC1)CC2` [CBK284878], the viability at 28.5 h, 10 µM was determined as 95.5%.

Regarding `O=C(CC1CCN(Cc2cccc(C(F)(F)F)c2)CC1)N(Cc1ccccn1)C1CC1` [CBK286494], the viability at 28.5 h, 10 µM is 101%.

In the case of `c1ccc(CN2CC[C@H](Nc3nccnc3-c3cccnc3)C2)cc1` [CBK036978], the viability at 28.5 h, 10 µM is 104%.

In the case of `CC(O)CNc1nccnc1-c1ccc(S(C)(=O)=O)cc1` (centres unmarked) [CBK037669], the viability at 28.5 h, 10 µM turned out to be 96.1%.

Take `Cc1cc(/C=C\c2nc(O)c([N+](=O)[O-])c(=O)[nH]2)c(C)n1-c1ccc(C(=O)O)cc1` [CBK267334]: the viability at 28.5 h, 10 µM was found to be 96.4%.

Take `O=C(NCc1csc(-c2ccccc2)n1)c1ccccc1OC(F)F` [CBK092332]: the viability at 28.5 h, 10 µM was determined as 95%.

As for `N#CC(c1ccc(Br)cc1)n1ccnc1` (centres unmarked) [CBK009985], the viability at 28.5 h, 10 µM stood at 85.6%.

For `CCOC(=O)c1c(NC(=O)CNCc2cccnc2)sc2c1CCCC2` [CBK304577], the viability at 28.5 h, 10 µM came to 94%.

With `Cc1ccc(C(=O)CC(C(=O)O)P(=O)(c2ccccc2)c2ccccc2)cc1` (centres unmarked) [CBK265022], the viability at 28.5 h, 10 µM is 90.1%.

Take `Cc1cc(C)n(C2CCN(Cc3c(C)nc4c(C)cccn34)CC2)n1` [CBK281617]: the viability at 28.5 h, 10 µM was determined as 101%.

Turning to `O=C(NCC(O)COc1ccccc1)c1cnn2c(-c3ccccc3)ccnc12` (centres unmarked) [CBK298320], the viability at 28.5 h, 10 µM came out at 99%.

In the case of `CN1C(=O)COc2ccccc2CCCC[C@@H]2[C@H]1CCCN2CCO` [CBK292112], the viability at 28.5 h, 10 µM amounted to 103%.

Take `O=C(Cc1n[nH]c(=O)[nH]c1=O)N/N=C/c1cccc(Br)c1` [CBK263086]: the viability at 28.5 h, 10 µM was 83%.

As for `O=C(O)c1cccc2c3c([nH]c12)CCCCC3` [CBK003451], the viability at 28.5 h, 10 µM worked out at 85%.

For the compound `Cc1nc(NS(=O)(=O)c2cccc(Cl)c2C)sc1C(=O)O` [CBK045561], the viability at 28.5 h, 10 µM is 110%.

Consider `Cc1cc(N2CCN(C(=O)CCc3ccccc3)CC2)nc(C(C)C)n1` [CBK305711], for which the viability at 28.5 h, 10 µM turned out to be 99.3%.

Consider `Cc1ccc(S(=O)(=O)Cc2noc([C@@H]3C[C@@H](O)CN3CC3CCCCC3)n2)cc1` [CBK288841], for which the viability at 28.5 h, 10 µM worked out at 115%.

Regarding `O=C(O)[C@@H]1CC(O)CN1C(=O)c1ccc2noc(-c3ccccc3)c2c1` (some centres unmarked) [CBK286736], the viability at 28.5 h, 10 µM was found to be 86.1%.

For `CCn1cnc(S(=O)(=O)N2CCC(OCc3ccccc3)CC2)c1` [CBK305228], the viability at 28.5 h, 10 µM is 73.1%.

As for `Nc1nc(SCC(=O)NCc2ccco2)n[nH]1` [CBK266572], the viability at 28.5 h, 10 µM was determined as 94%.

`Nc1ncc(-c2cccc(O)c2)nc1-c1ccc(C=O)cc1` [CBK064088]: the viability at 28.5 h, 10 µM worked out at 104%.

Take `COc1cc(CN2CCN(C/C=C/c3ccccc3)CC2)cc(Br)c1O` [CBK261582]: the viability at 28.5 h, 10 µM was 101%.

On to `CCNC(=O)C1(Cc2ccccc2-c2ccccc2)CCN(C(=O)c2csc(C)c2)CC1` [CBK285698], for which the viability at 28.5 h, 10 µM is 93.3%.

Take `CC(C)c1c(SCCN)[nH]c2ccccc12` [CBK017265C]: the viability at 28.5 h, 10 µM is 96%.

As to `C#CCNC(=O)[C@@H]1Cc2cn(Cc3nccn3C)c3cccc(c23)[C@H](CC(C)C)N1` [CBK289424], the viability at 28.5 h, 10 µM was determined as 108%.

Regarding `CC(NC(=O)C1CCN(CCOc2ccc(F)cc2)CC1)c1cccc2ccccc12` (centres unmarked) [CBK148634], the viability at 28.5 h, 10 µM was 93.6%.

For `O=C(c1cncc(-c2[nH]nnc2-c2ccccc2)c1)N1CCCC1` [CBK160360], the viability at 28.5 h, 10 µM was 91.7%.

With `O=C(O)c1cccc(NS(=O)(=O)c2cccc(S(=O)(=O)c3ccc(Cl)c(Cl)c3)c2)c1` [CBK261259], the viability at 28.5 h, 10 µM came to 102%.

For `O=C(NCCCn1cc(Cl)cn1)N1CCCN(Cc2cccs2)CC1` [CBK307279], the viability at 28.5 h, 10 µM was determined as 105%.

For `Cc1cn2c(=O)c(C(=O)Nc3ccc(F)c(C(F)(F)F)c3)cnc2s1` [CBK287713], the viability at 28.5 h, 10 µM amounted to 77.9%.

Turning to `Cc1oc(C2CC2)cc1C(=O)N1CCCC1c1nc2ccccc2[nH]1` (centres unmarked) [CBK283741], the viability at 28.5 h, 10 µM amounted to 88.1%.

For the compound `O=C(Nc1ccc(Cl)cc1C(=O)O)c1ccccc1` [CBK269993], the viability at 28.5 h, 10 µM came to 87.5%.

As for `Cc1ccc(C)c(NC(=O)CN(Cc2ccc(Cl)c(Cl)c2)S(=O)(=O)c2ccccc2)c1` [CBK264191], the viability at 28.5 h, 10 µM amounted to 107%.

For the compound `CC1CN(C(=S)Nc2ccc3ccccc3c2)CC(C)O1` (centres unmarked) [CBK004993], the viability at 28.5 h, 10 µM came out at 102%.

Turning to `O=C(Cn1c(=O)cc(O)c2ccccc21)N1CCN(c2ccccn2)CC1` [CBK291117], the viability at 28.5 h, 10 µM turned out to be 94.4%.

For `Cn1c(SCC(=O)O)nnc1-c1cc(Br)ccc1O` [CBK269150], the viability at 28.5 h, 10 µM turned out to be 103%.

Consider `Cc1ccc(S(=O)(=O)N(CC(=O)Nc2ccccc2C)Cc2ccc(Cl)c(Cl)c2)cc1` [CBK264735], for which the viability at 28.5 h, 10 µM worked out at 93.3%.

With `N#Cc1c(N)nc(SCC(=O)O)c(C#N)c1-c1ccc(O)cc1` [CBK261270], the viability at 28.5 h, 10 µM is 98%.

`Cc1c(C(=O)N2CCC(c3c(C(=O)NC(C)C)sc4ccccc34)C2)[nH]c2ccccc12` (centres unmarked) [CBK285872]: the viability at 28.5 h, 10 µM amounted to 84.8%.

As to `CCOC(=O)[C@@]12CC=CCN(C(=O)c3ccco3)[C@@H]1CCC2` [CBK284574], the viability at 28.5 h, 10 µM is 104%.

On to `O=C(Cn1c(C2CCOCC2)cc2cccnc21)NC1CCCC1` [CBK285157], for which the viability at 28.5 h, 10 µM was determined as 86.3%.

For `CN1CCN(CCOC(=O)N2CCCC(C(F)(F)F)C2)CC1` (centres unmarked) [CBK200207], the viability at 28.5 h, 10 µM stood at 87.2%.

Regarding `O=C(Nc1cccc(S(=O)(=O)N2CCOCC2)c1)c1cc(-c2cccnc2)nc2ccc(Cl)cc12` [CBK267720], the viability at 28.5 h, 10 µM is 98%.

Turning to `Cc1cn([C@H]2C[C@@H](O)[C@@H](CO)O2)c(=O)nc1N` [CBK201307], the viability at 28.5 h, 10 µM was found to be 100%.

`Brc1cn2ccnc2c(NCc2ccccn2)n1` [CBK038024]: the viability at 28.5 h, 10 µM is 88.7%.

Turning to `Nc1ncnc2c1nc1n2[C@H]2C[C@@H](O)[C@@H](C1)O2` [CBK201254], the viability at 28.5 h, 10 µM is 102%.

On to `CCCCc1ccc(-c2ccc3ccc(NC(=O)C(C)C)nc3n2)cc1` [CBK073668], for which the viability at 28.5 h, 10 µM is 93%.

As to `CCn1c(C2CCN(C(=O)CCCn3cncn3)CC2)nn(C)c1=O` [CBK307326], the viability at 28.5 h, 10 µM came out at 92.4%.

Turning to `COc1ccc(C(C)C)cc1-c1nc(NS(C)(=O)=O)cc2ccccc12` [CBK073779], the viability at 28.5 h, 10 µM amounted to 94.2%.

With `Nc1nc(NCCOc2ccccc2Cl)cc(C2CC(N)C2)n1` (centres unmarked) [CBK306825], the viability at 28.5 h, 10 µM stood at 75.2%.

With `CC1CN(C2CCN(S(=O)(=O)c3cccs3)CC2)C(=O)O1` (centres unmarked) [CBK044072], the viability at 28.5 h, 10 µM worked out at 112%.

For the compound `C[C@@H](Nc1cncc(-c2cccc3ccccc23)n1)c1ccccc1` [CBK065646], the viability at 28.5 h, 10 µM was 93.4%.

For the compound `C=CCN1C(=O)C2(CC(=O)N(CCCN(C)S(C)(=O)=O)C2=O)c2cc(F)ccc21` (centres unmarked) [CBK075319], the viability at 28.5 h, 10 µM turned out to be 100%.

Turning to `CCOC(=O)N1CCC(NC(=O)c2ccc(Nc3cncc(-c4ccc(O)cc4)n3)cc2)CC1` [CBK115694], the viability at 28.5 h, 10 µM came out at 107%.

As to `Cc1cc(C)nc(Nc2n[nH]c(-c3ccc(NC(=O)Nc4ccccc4)cc3)n2)n1` [CBK267076], the viability at 28.5 h, 10 µM is 92.7%.

`CC(NC(=O)C1CC=CCC1C(=O)O)C1CC2CCC1C2` (centres unmarked) [CBK027112]: the viability at 28.5 h, 10 µM was found to be 114%.

In the case of `O=C(O)c1ccc(C(=O)O)c(-c2ccccc2)c1` [CBK261102], the viability at 28.5 h, 10 µM amounted to 104%.

In the case of `Cc1cc2nccc(C3CCCN(C(=O)OC(C)(C)C)C3)n2n1` (centres unmarked) [CBK284037], the viability at 28.5 h, 10 µM was found to be 90.8%.

As to `O=C(Nc1ccccn1)Nc1ccccn1` [CBK015518], the viability at 28.5 h, 10 µM is 95.5%.

As to `Cc1cc(NC(=O)CN(C)C(=O)c2ccc(-n3cc(Br)cn3)cc2)no1` [CBK305575], the viability at 28.5 h, 10 µM was found to be 100%.
